Measured values published in patent US7473688B2, “Indolobenzazepine HCV NS5B inhibitors” (Bristol-Myers Squibb Company, priority 2005, dated 2009).

Molecular target: T1, HCV NS5B (Hepatitis C virus genotype 1b, UniProt Q9WMX2)
T1 construct: The protein was expressed with an 18 amino acid C-terminal truncation to enhance the solubility; made in house; host or cells: E. coli BL21 (DE3), pET21a
Assay: HCV NS5B RdRp enzyme assay (preincubation protocol)
Type: biochemical
Details: Table 1, read-out: IC50*
Description: HCV NS5B RdRp cloning, expression, and purification. The cDNA encoding the NS5B protein of HCV, genotype 1b, was cloned into the pET21a expression vector. The protein was expressed with an 18 amino acid C-terminal truncation to enhance the solubility. The E. coli competent cell line BL21 (DE3) was used for expression of the protein. Cultures were grown at 37° C. for ˜4 hours until the cultures reached an optical density of 2.0 at 600 nm. The cultures were cooled to 20° C. and induced with 1 mM IPTG. Fresh ampicillin was added to a final concentration of 50 μg/ml and the cells were grown overnight at 20° C.
Cell pellets (3L) were lysed for purification to yield 15-24 mgs of purified NS5B. The lysis buffer consisted of 20 mM Tris-HCl, pH 7.4, 500 mM NaCl, 0.5% triton X-100, 1 mM DTT, 1 mM EDTA, 20% glycerol, 0.5 mg/ml lysozyme, 10 mM MgCl2, 15 ug/ml deoxyribonuclease I, and Complete TM protease inhibitor tablets (Roche). After addition of the lysis buffer, frozen cell pellets were resuspended using a tissue homogenizer. To reduce the viscosity of the sample, aliquots of the lysate were sonicated on ice using a microtip attached to a Branson sonicator. The sonicated lysate was centrifuged at 100,000×g for 1 hr at 4° C. and filtered through a 0.2 μm filter unit (Corning).
The protein was purified using three sequential chromatography steps: Heparin sepharose CL-6B, polyU sepharose 4B, and Hitrap SP sepharose (Pharmacia). The chromatography buffers were identical to the lysis buffer but contained no lysozyme, deoxyribonuclease I, MgCl2 or protease inhibitor and the NaCl concentration of the buffer was adjusted according to the requirements for charging the protein onto the column. Each column was eluted with a NaCl gradient which varied in length from 5-50 column volumes depending on the column type. After the final chromatography step, the resulting purity of the enzyme is >90% based on SDS-PAGE analysis. The enzyme was aliquoted and stored at −80° C.
Standard HCV NS5B RdRp enzyme assay. HCV RdRp genotype 1b assays were run in a final volume of 60 μl in 96 well plates (Costar 3912). The assay buffer is composed of 20 mM Hepes, pH 7.5, 2.5 mM KCl, 2.5 mM MgCl2, 1 mM DTT, 1.6 U RNAse inhibitor (Promega N2515), 0.1 mg/ml BSA (Promega R3961), and 2% glycerol. All compounds were serially diluted (3-fold) in DMSO and diluted further in water such that the final concentration of DMSO in the assay was 2%. HCV RdRp genotype 1b enzyme was used at a final concentration of 28 nM. A polyA template was used at 6 nM, and a biotinylated oligo-dT12 primer was used at 180 nM final concentration. Template was obtained commercially (Amersham 27-4110). Biotinylated primer was prepared by Sigma Genosys. 3H-UTP was used at 0.6 μCi (0.29 μM total UTP). Reactions were initiated by the addition of enzyme, incubated at 30° C. for 60 min, and stopped by adding […] of 50 mM EDTA containing SPA beads (4 μg/μl, Amersham RPNQ 0007). Plates were read on a Packard Top Count NXT after >1 hr incubation at room temperature.
Modified HCV NS5B RdRp enzyme assay. A modified enzyme assay was performed essentially as described for the standard enzyme assay except for the following: The biotinylated oligo dT12 primer was precaptured on streptavidin-coated SPA beads by mixing primer and beads in assay buffer and incubating at room temperature for one hour. Unbound primer was removed after centrifugation. The primer-bound beads were resuspended in 20 mM Hepes buffer, pH 7.5 and used in the assay at final concentrations of […] primer and 0.67 μg/μl beads. Order of addition in the assay: Enzyme (14 nM) was added to diluted compound followed by the addition of a mixture of template (0.2 nM), 3H-UTP (0.6 μCi, 0.29 μM), and primer-bound beads, to initiate the reaction; concentrations given are final. Reactions were allowed to proceed for 4 hours at 30° C.
IC50 values for compounds were determined using seven different [I]. […]

T1 sequence (Q9WMX2 2420-2992): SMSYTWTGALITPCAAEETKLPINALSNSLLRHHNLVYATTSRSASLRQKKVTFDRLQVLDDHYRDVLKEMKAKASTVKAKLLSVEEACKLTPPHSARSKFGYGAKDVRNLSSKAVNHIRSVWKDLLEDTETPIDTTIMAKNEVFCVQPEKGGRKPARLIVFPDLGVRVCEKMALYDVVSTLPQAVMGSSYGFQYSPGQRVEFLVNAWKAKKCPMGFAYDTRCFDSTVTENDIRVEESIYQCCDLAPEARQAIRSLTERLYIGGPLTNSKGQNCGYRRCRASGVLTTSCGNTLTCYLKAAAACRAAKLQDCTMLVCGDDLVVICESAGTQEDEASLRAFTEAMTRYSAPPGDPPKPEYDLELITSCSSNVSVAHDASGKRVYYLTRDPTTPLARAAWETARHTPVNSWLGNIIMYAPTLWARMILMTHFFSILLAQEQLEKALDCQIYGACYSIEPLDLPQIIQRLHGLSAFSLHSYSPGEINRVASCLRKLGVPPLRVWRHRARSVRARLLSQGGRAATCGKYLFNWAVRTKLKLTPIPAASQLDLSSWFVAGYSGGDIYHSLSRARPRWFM

SMILES | IC50 [nM]
CN(C)S(=O)(=O)NC(=O)c1ccc2c(C3CCCCC3)c3n(c2c1)CC(NC(=O)N1CCOCC1)Cc1ccccc1-3 (centres unmarked) [drawing 153] | 10 to 1000
CN(C)S(=O)(=O)NC(=O)c1ccc2c(C3CCCCC3)c3n(c2c1)CC(C(=O)N1CCC(N2CCOCC2)CC1)=Cc1cc(OCc2ccccc2)ccc1-3 [drawing 139] | 10 to 1000
O=C(NCc1cnn[nH]1)c1ccc2c(C3CCCCC3)c3n(c2c1)CC(C(=O)N1CCC(N2CCOCC2)CC1)=Cc1ccccc1-3 [drawing 204] | 10 to 1000
C[C@@H]1CN(CCNC(=O)C2=Cc3ccccc3-c3c(C4CCCCC4)c4ccc(C(=O)NS(=O)(=O)N(C)C)cc4n3C2)C[C@H](C)O1 [drawing 148] | 10 to 1000
CN(C)S(=O)(=O)NC(=O)c1ccc2c(C3CCCCC3)c3n(c2c1)CC(NC(=O)N1CCOCC1)Cc1ccccc1-3 (centres unmarked) [drawing 155] | 10 to 1000
COC(=O)c1ccc2c(C3CCCCC3)c3n(c2c1)CC(C(=O)N1CCC(N2CC[C@H](F)C2)CC1)=Cc1ccccc1-3 | > 1000

Same assay, conditions: Table 1a, read-out: IC50*

SMILES | IC50 [nM]
COc1ccc2c(c1)CC(N(C)C(=O)N1C[C@@H](C)O[C@@H](C)C1)Cn1c-2c(C2CCCCC2)c2ccc(C(=O)O)cc21 (some centres unmarked) | 10 to 1000
COC(=O)[C@@H]1C[C@@H](O)CN1C(=O)C1=Cc2cc(OC)ccc2-c2c(C3CCCCC3)c3ccc(C(=O)NS(=O)(=O)N(C)C)cc3n2C1 | 10 to 1000
O=C(NS(=O)(=O)N1CCOCC1)c1ccc2c(C3CCCCC3)c3n(c2c1)CC(C(=O)N1CCN(CC(F)(F)F)CC1)=Cc1ccccc1-3 | 10 to 1000
CN(C)S(=O)(=O)NC(=O)c1ccc2c(C3CCCCC3)c3n(c2c1)C[C@@H](NC(=O)N1CCOCC1)Cc1ccccc1-3 | 10 to 1000
COC1CCCC(C(=O)N(C)C2Cc3ccccc3-c3c(C4CCCCC4)c4ccc(C(=O)O)cc4n3C2)C1 (centres unmarked) | 10 to 1000
O=C(NCc1nc2ccccc2[nH]1)c1ccc2c(C3CCCCC3)c3n(c2c1)CC(C(=O)N1CCC(N2CCOCC2)CC1)=Cc1ccccc1-3 | 10 to 1000
O=C(NC[C@@H]1CCCO1)c1ccc2c(C3CCCCC3)c3n(c2c1)CC(C(=O)N1CCC(N2CCOCC2)CC1)=Cc1ccccc1-3 | 10 to 1000
COc1ccc2c(c1)CC(N(C)C(=O)C1CCOCC1)Cn1c-2c(C2CCCCC2)c2ccc(C(=O)NS(=O)(=O)N(C)C)cc21 (centres unmarked) | 10 to 1000
O=C(NCc1ccccn1)c1ccc2c(C3CCCCC3)c3n(c2c1)CC(C(=O)N1CCC(N2CCOCC2)CC1)=Cc1ccccc1-3 | 10 to 1000
COc1ccc2c(c1)C=C(C(=O)N1CCN(C(=O)N3CCCCC3)CC1)Cn1c-2c(C2CCCCC2)c2ccc(C(=O)NS(=O)(=O)N(C)C)cc21 | 10 to 1000
O=C(NCc1ccco1)c1ccc2c(C3CCCCC3)c3n(c2c1)CC(C(=O)N1CCC(N2CCOCC2)CC1)=Cc1ccccc1-3 | 10 to 1000
O=C(NCc1cn2ccccc2n1)c1ccc2c(C3CCCCC3)c3n(c2c1)CC(C(=O)N1CCC(N2CCOCC2)CC1)=Cc1ccccc1-3 | 10 to 1000
COc1ccc2c(c1)C=C(C(=O)N1CCOC(c3ccccc3)C1)Cn1c-2c(C2CCCCC2)c2ccc(C(=O)NS(=O)(=O)N(C)C)cc21 (centres unmarked) | 10 to 1000
COc1ccc2c(c1)C=C(C(=O)N1CCC(C(=O)N(C)C)CC1)Cn1c-2c(C2CCCCC2)c2ccc(C(=O)NS(=O)(=O)N(C)C)cc21 | 10 to 1000
COc1ccc2c(c1)C=C(C(=O)N1CCC[C@H]1C(=O)N(C)C)Cn1c-2c(C2CCCCC2)c2ccc(C(=O)NS(=O)(=O)N(C)C)cc21 | 10 to 1000
COc1ccc2c(c1)CC(C(=O)N1CCN(C(=O)N(C)C)CC1)Cn1c-2c(C2CCCCC2)c2ccc(C(=O)NS(=O)(=O)N(C)C)cc21 (centres unmarked) | 10 to 1000
COc1ccc2c(c1)CC(N(C)C(=O)C1CCOCC1)Cn1c-2c(C2CCCCC2)c2ccc(C(=O)O)cc21 (centres unmarked) | < 20
COCCNC(=O)CN(C)C(=O)C1Cc2cc(OC)ccc2-c2c(C3CCCCC3)c3ccc(C(=O)NS(=O)(=O)N(C)C)cc3n2C1 (centres unmarked) | 10 to 1000
COc1ccc2c(c1)C=C(C(=O)N1CCC[C@H](OC(C)=O)C1)Cn1c-2c(C2CCCCC2)c2ccc(C(=O)NS(=O)(=O)N(C)C)cc21 | 10 to 1000

SMILES | IC50 [nM]
COc1ccc2c(c1)C=C(C(=O)NCCN1C[C@@H](C)O[C@@H](C)C1)Cn1c-2c(C2CCCCC2)c2ccc(C(=O)NS(=O)(=O)N(C)C)cc21 | 10 to 1000
COc1ccc2c(c1)C=C(C(=O)N1CCN(c3ncncn3)CC1)Cn1c-2c(C2CCCCC2)c2ccc(C(=O)NS(=O)(=O)N(C)C)cc21 | 10 to 1000
COc1ccc2c(c1)C=C(C(=O)N1CCN(C(=O)N3CCCC3)CC1)Cn1c-2c(C2CCCCC2)c2ccc(C(=O)NS(=O)(=O)N(C)C)cc21 | 10 to 1000
CNC(=O)N1CCN(C(=O)C2=Cc3ccccc3-c3c(C4CCCCC4)c4ccc(C(=O)NS(=O)(=O)N(C)C)cc4n3C2)CC1 | 10 to 1000
C=CCNC(=O)N1CCN(C(=O)C2=Cc3ccccc3-c3c(C4CCCCC4)c4ccc(C(=O)NS(=O)(=O)N(C)C)cc4n3C2)CC1 | 10 to 1000
O=C(NC[C@H]1CCCO1)c1ccc2c(C3CCCCC3)c3n(c2c1)CC(C(=O)N1CCC(N2CCOCC2)CC1)=Cc1ccccc1-3 | 10 to 1000
CC(=O)NC1Cc2ccccc2-c2c(C3CCCCC3)c3ccc(C(=O)NS(=O)(=O)N(C)C)cc3n2C1 (centres unmarked) | 10 to 1000
CCN(CC)C(=O)CN(C)C(=O)C1=Cc2cc(OC)ccc2-c2c(C3CCCCC3)c3ccc(C(=O)NS(=O)(=O)N(C)C)cc3n2C1 | 10 to 1000
COc1ccc2c(c1)C=C(C(=O)NCCNC(C)=O)Cn1c-2c(C2CCCCC2)c2ccc(C(=O)NS(=O)(=O)N(C)C)cc21 | 10 to 1000
COC(=O)c1ccc2c(C3CCCCC3)c3n(c2c1)CC(C(=O)N1C[C@@H](C)N(C)[C@@H](C)C1)=Cc1cc(F)ccc1-3 | 10 to 1000
COC(=O)c1ccc2c(C3CCCCC3)c3n(c2c1)CC(C(=O)NCC1CCCO1)Cc1cc(OC)ccc1-3 (centres unmarked) | > 1000
COC(=O)CNC(=O)CNC(=O)C1=Cc2cc(OC)ccc2-c2c(C3CCCCC3)c3ccc(C(=O)NS(=O)(=O)N(C)C)cc3n2C1 | 10 to 1000
O=C(O)c1ccc2c(C3CCCCC3)c3n(c2c1)CC(NC(=O)C1CCOCC1)Cc1ccccc1-3 (centres unmarked) | 10 to 1000
COc1ccc2c(c1)C=C(C(=O)N1CCC3(CC1)OC(=O)c1ccccc13)Cn1c-2c(C2CCCCC2)c2ccc(C(=O)NS(=O)(=O)N(C)C)cc21 | 10 to 1000
O=C(NCCc1nc2ccccc2[nH]1)c1ccc2c(C3CCCCC3)c3n(c2c1)CC(C(=O)N1CCC(N2CCOCC2)CC1)=Cc1ccccc1-3 | 10 to 1000
CN(C)C(=O)CN(C)C(=O)C1=Cc2ccccc2-c2c(C3CCCCC3)c3ccc(C(=O)O)cc3n2C1 | 10 to 1000
COc1ccc2c(c1)C[C@@H](C(=O)N1CCC[C@H](OC(C)=O)C1)Cn1c-2c(C2CCCCC2)c2ccc(C(=O)NS(=O)(=O)N(C)C)cc21 [drawing 320] | 10 to 1000
COc1ccc2c(c1)C=C(C(=O)N1CCn3cnnc3C1)Cn1c-2c(C2CCCCC2)c2ccc(C(=O)NS(=O)(=O)N(C)C)cc21 | 10 to 1000
COc1ccc2c(c1)C=C(C(=O)N1C[C@@H](C)O[C@@H](C)C1)Cn1c-2c(C2CCCCC2)c2ccc(C(=O)NS(=O)(=O)N3CCN(C)CC3)cc21 | 10 to 1000

Same assay, conditions: Table 1b, read-out: IC50*

SMILES | IC50 [nM]
COc1ccc2c(c1)C=C(C(=O)N(C)[C@H](C)C(=O)N1CCOCC1)Cn1c-2c(C2CCCCC2)c2ccc(C(=O)NS(=O)(=O)N(C)C)cc21 | < 20
O=C(O)c1ccc2c(C3CCCCC3)c3n(c2c1)CC(C(=O)N1CCOC(CO)C1)=Cc1cc(F)ccc1-3 (centres unmarked) | 20 to 1000
COc1ccc2c(c1)C=C(C(=O)N1C[C@@H](C)N(C(C)C)[C@@H](C)C1)Cn1c-2c(C2CCCCC2)c2ccc(C(=O)NS(=O)(=O)N(C)C)cc21 | 20 to 1000
